Source: paper PMC10812467, “Peroxidasin Inhibition by Phloroglucinol and Other Peroxidase Inhibitors” (Antioxidants, 2023)
Where two headings read alike, the source gives them in different places. Each block holds one compound with its values, some of them ahead of it.

What was measured:
[1] = test system: collagen IV NCD sulfilimine cross-link formation in isolated ECM from PFHR9 cells; experiment: Inhibition of collagen IV cross-linking in decellularized extracellular matrix; format: biochemical
Description: (§1) PFHR9 cells (ATCC) were grown in Dulbecco’s Modified Eagle Medium (Gibco), supplemented with 10% heat-inactivated foetal bovine serum (Moregate) and 1% Penicillin Streptomycin (Gibco). As described previously, cells were seeded in 150 mm cell culture dishes and ECM was isolated. The concentration of the isolated ECM protein was measured (Direct Detect) and the yield was typically ~5 mg per dish. […] After 10 min, 100 μM bromide was added and the cross-link formation was started by adding 100 μM hydrogen peroxide. After 1 h at 37 °C, the reaction was stopped, by adding 1 mM sodium azide, and ECM was digested with 2 mg mL^−1 of collagenase type I (Worthington) for 48 h at 37 °C. The digest was spun (20 kg, RT, 20 min) and the extent of cross-linking of the NCD of collagen IV was determined by the resolution of the supernatant protein on a 12% sodium dodecyl-sulfate polyacrylamide gel electrophoresis (SDS-PAGE). […] Densitometric analyses of both dimer bands (Alliance Uvitec Cambridge imager) were used to determine the extent of inhibition of the cross-link formation. […] Once full confluence was reached, the medium was changed daily, and inhibitors were added at the indicated concentrations in 1 mL of medium for 7 days.

[2] = test system: collagen IV NCD sulfilimine cross-link formation of PFHR9 cells; experiment: Inhibition of collagen IV cross-linking in cell culture; format: cell-based; conditions: PFHR9 cells grown with inhibitor for 7 days, Western blot densitometry, n.a. = 50% inhibition not reached
Description: as §1

Human peroxidasin (PXDN) [3] = target: T1, Human peroxidasin (PXDN) (Homo sapiens, UniProt Q92626); experiment: Amplex oxidation activity assay in the absence of bromide; format: biochemical
T1 construct: the four immunoglobulin domains and the peroxidase domain (amino acid residue 246-1314); made in house; host or cells: transient transfection
T1 sequence (Q92626 246-1314): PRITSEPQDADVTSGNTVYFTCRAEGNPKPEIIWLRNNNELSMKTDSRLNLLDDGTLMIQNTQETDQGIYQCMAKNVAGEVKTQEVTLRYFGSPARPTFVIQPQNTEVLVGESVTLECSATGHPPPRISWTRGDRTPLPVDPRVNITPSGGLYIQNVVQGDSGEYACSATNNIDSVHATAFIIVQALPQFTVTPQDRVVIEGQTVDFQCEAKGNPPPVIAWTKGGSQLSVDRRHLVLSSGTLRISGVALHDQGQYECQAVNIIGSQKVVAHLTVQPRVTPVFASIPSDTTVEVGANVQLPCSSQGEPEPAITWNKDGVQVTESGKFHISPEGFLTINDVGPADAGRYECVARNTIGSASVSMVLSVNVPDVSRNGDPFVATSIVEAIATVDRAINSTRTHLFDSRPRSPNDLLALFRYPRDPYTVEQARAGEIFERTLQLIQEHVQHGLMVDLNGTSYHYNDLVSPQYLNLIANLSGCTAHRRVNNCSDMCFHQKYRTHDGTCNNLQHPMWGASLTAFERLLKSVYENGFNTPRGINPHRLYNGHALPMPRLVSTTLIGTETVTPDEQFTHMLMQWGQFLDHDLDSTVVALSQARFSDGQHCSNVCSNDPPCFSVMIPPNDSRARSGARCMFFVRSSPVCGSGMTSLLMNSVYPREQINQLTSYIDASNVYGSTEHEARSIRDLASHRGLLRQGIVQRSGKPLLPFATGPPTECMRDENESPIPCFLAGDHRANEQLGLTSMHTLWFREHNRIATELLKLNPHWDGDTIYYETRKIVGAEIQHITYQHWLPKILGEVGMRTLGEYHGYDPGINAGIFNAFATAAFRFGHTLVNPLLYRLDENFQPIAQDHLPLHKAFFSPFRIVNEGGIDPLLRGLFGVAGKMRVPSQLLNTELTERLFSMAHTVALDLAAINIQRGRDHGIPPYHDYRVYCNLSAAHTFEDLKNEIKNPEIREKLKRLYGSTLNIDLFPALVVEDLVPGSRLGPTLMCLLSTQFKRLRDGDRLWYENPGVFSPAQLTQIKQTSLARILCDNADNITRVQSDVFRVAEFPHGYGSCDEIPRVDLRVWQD
Description: (§2) A previously characterized truncated peroxidasin variant, formerly annotated as hsPxd01-con4 [46], consisting of the four immunoglobulin domains and the peroxidase domain (amino acid residue 246-1314; numbering refers to full length PXDN including the signal peptide as shown in Uniprot Q92626), was used for all experiments using PXDN protein. Cloning, transient transfection, expression and the quality control of the purified recombinant PXDN was performed routinely, as described previously. Molar concentrations are per heme and were determined using an extinction coefficient of 147,500 M^−1 cm^−1 for the heme Soret peak at 412 nm. For the conversion to mg, a molar mass of 140,000 g mol^−1 was used and calculated from the molar concentration per heme. For simplicity we will refer to this variant as peroxidasin (PXDN) throughout the manuscript.
(§3) 100 µL of 50 μM Amplex™ UltraRed and 20 μM hydrogen peroxide in 50 mM phosphate buffer pH 7.4 and the respective inhibitor at twice of its final concentration was added to a 96-well plate. […] The plate was incubated in the dark for 15 min at 37 °C before the fluorescence of resorufin, the resulting Amplex oxidation product, was detected using a SpectraMax iD3 fluorescent plate reader from Molecular Devices LLC, San Jose, CA 95134 (λex 544 nm, λem 590 nm, end point measurement). The same assay was also performed with 50 mM bromide present. To determine IC50 values, Amplex oxidation (measured as the end point as described above) was plotted versus the concentration of the inhibitor and expressed as % inhibition.

Human peroxidasin (PXDN) [4] = target: T1, Human peroxidasin (PXDN); experiment: Amplex oxidation activity assay in the presence of bromide; format: biochemical
Description: as §2, §3

PXDN Compound I = target: T2, PXDN Compound I (Homo sapiens, UniProt Q92626); experiment: Sequential stopped-flow spectroscopy of PXDN Compound I with inhibitors; format: biochemical; conditions: 1 μM PXDN Compound I, pH 7.4, 25 °C
T2 construct: the four immunoglobulin domains and the peroxidase domain (amino acid residue 246-1314); made in house; host or cells: transient transfection
T2 sequence (Q92626 246-1314): T1 sequence (Q92626 246-1314)
Description: Pre-steady-state spectra were recorded with the stopped-flow apparatus SX.18MV (Applied Photophysics Ltd, Leatherhead, UK) connected to a diode array detector (DAD), with the first spectrum recorded 14 ms after the mixing of the reactants. Due to the inherent instability of Compound I of PXDN, the sequential mixing mode was used to generate Compound I. Equal volumes of 4 μM PXDN and 4 μM hydrogen peroxide were mixed in the aging loop. […] Interconversion of redox intermediates of PXDN was monitored for 60 s. […] All reactions were performed in 100 mM phosphate buffer, pH 7.4, and at 25 °C. Time traces (410 nm to monitor Compound I and ferric PXDN, 432 nm for Compound II and 550 and 590 nm to monitor Compound III [46]) were extracted from the time-resolved spectra.

Human peroxidasin (PXDN) [5] = target: T1, Human peroxidasin (PXDN); experiment: Reversibility of inactivation of immobilized PXDN (wash, then Amplex assay); format: biochemical; conditions: 10 min, washed four times; for Irreversible Inhibition: 20 μM inhibitor, then Amplex assay
Description: 200 ng of PXDN in 50 μL PBS was added per well of a Corning high-binding ELISA microplate for 2 h at room temperature. After four PBS washes, the respective inhibitors were added at a final concentration of 20 μM in phosphate buffer pH 7.4, before 10 μM of hydrogen peroxide was added in a final volume of 50 μL. In a control experiment, no hydrogen peroxide was added. After 10 min of incubation, the plates were washed four times with PBS and activity was measured as previously described, by adding 50 μL/well of 50 μM Amplex™ UltraRed Reagent, 20 μM hydrogen peroxide and 50 mM bromide in 50 mM phosphate buffer pH 7.4. The plate was incubated for 30 min in the dark at 37 °C before fluorescence was measured (λex 544 nm, λem 590 nm) and expressed as % activity of the untreated control.

Human peroxidasin (PXDN) [6] = target: T1, Human peroxidasin (PXDN); experiment: Dansylglycine halogenation (bromination) activity assay; format: biochemical; conditions: 50 nM PXDN, 100 mM bromide; for inhibition at 24 µM: 24 μM inhibitor, 50 μM DG, 200 μM hydrogen peroxide, pH 7.4
Description: as §2
Dansylglycine (DG) was made up fresh every day and kept in the dark at room temperature. […] We mixed 50 nM PXDN in 100 mM phosphate buffer pH 7.4 with 50 μM DG and 100 mM bromide, before the reaction was started by adding 200 μM of hydrogen peroxide to a final volume of 1.5 mL. Loss of fluorescence was monitored for 60 s using a F-7000 Hitachi (Methrom-Inula, Vienna) fluorometer (λex 340 nm, λem 550 nm). […] The loss of fluorescence was fitted linearly to determine the rate of reaction (min^−1). The effect of the inhibitors was expressed as % inhibition, relative to the rate of the halogenation activity of PXDN without an inhibitor. IC50 values were determined by varying inhibitor concentrations (0–48 μM).

PFHR9 cells = experiment: Tolerability / toxicity in cell culture; format: cell-based
Description: as §1, with “°C.” for “°C. The digest was spun (20 kg, RT, 20 min) and the extent of cross-linking of the NCD of collagen IV was determined by the resolution of the supernatant protein on a 12% sodium dodecyl-sulfate polyacrylamide gel electrophoresis (SDS-PAGE).”

[7] = test system: collagen IV cross-link formation by PXDN; set-up: method as in PMID 22842973; conditions: cited from earlier work
LPO = test system: LPO; set-up: method as in PMID 8068644; conditions: cited from earlier work
TPO = test system: TPO; set-up: method as in PMID 8068644; conditions: cited from earlier work
MPO = conditions: literature statement; cited from earlier work
[8] = 100 μM bromide, 100 μM hydrogen peroxide, 1 h 37 °C, Western blot densitometry, read-out: IC50 DECM

Compound: NCCc1ccc(O)c(O)c1 [Dopamine]
- IC50 (Human peroxidasin (PXDN) [3]): 10 nM
- inhibition at 20 µM (Human peroxidasin (PXDN) [4]; 20 μM inhibitor, 50 mM bromide): 25 to 70%
- Mechanism or Reaction Steady and Pre-Steady State Spectrophotometry (PXDN Compound I): Good substrate for CI and CII

Compound: Oc1cc(O)cc(O)c1 [Phloroglucinol, 1,3,5-Trihydroxybenzene]
- inhibition at 24 µM (Human peroxidasin (PXDN) [6]): 97 to 99%
- IC50 (Human peroxidasin (PXDN) [3]): 137 nM
- inhibition at 20 µM (Human peroxidasin (PXDN) [3]; 20 μM inhibitor, without bromide): > 95%
- IC50 (Human peroxidasin (PXDN) [4]): 948 nM
- inhibition at 20 µM (Human peroxidasin (PXDN) [4]; 20 μM inhibitor, 50 mM bromide): > 95%
- Irreversible Inhibition (Human peroxidasin (PXDN) [5]): yes
- inhibition at 20 µM (Human peroxidasin (PXDN) [5]; immobilized PXDN, 20 μM inhibitor without or with 10 μM hydrogen peroxide, read-out: inhibition of PXDN remaining after washing): > 95%
- Mechanism or Reaction Steady and Pre-Steady State Spectrophotometry (PXDN Compound I): Adduct formation or tight ligand binding
- IC50 [1, 8]: 950 nM
- IC50 ([1]; read-out: IC50 inhibition of collagen IV cross-link formation in ECM model): ~950 nM
- tolerability in cell culture (PFHR9 cells): well tolerated in cell culture and does not impact cell proliferation
- IC50 ([7]; read-out: IC50 inhibition of collagen IV cross-linking, previously published value): 500 nM
- inhibition of LPO (LPO): potently inhibits
- inhibition of TPO (TPO): potently inhibits
- inhibition of MPO (MPO): not to be inhibited

Compound: Cn1cc[nH]c1=S [methimazole]
- inhibition of collagen IV cross-link formation by PXDN [7]: potently inhibits

Compound: (E)-2-methoxy-4-((2-phtalazine-1yl)hydrazono)methyl)phenol [Hydralazine-vanillin]
- Mechanism or Reaction Steady and Pre-Steady State Spectrophotometry (PXDN Compound I): good peroxidation substrates

Second part, led by results:

- IC50 [1, 8]: 3700 nM
Compound: O=C(O)CNc1ccc(Cl)cc1 [Cl-PAAA, (2-[(4-chlorophenyl)amino]-acetic acid)]
- IC50 Cells [2]: toxic

- IC50 [1, 8]: 12700 nM
- IC50 ([2]; 168 h): ~172000 nM
Compound: NNC(=O)CNc1ccc(Cl)cc1 [Cl-PAAH, (2-[(4-chlorophenyl)amino]-acetohydrazide)]

- IC50 (Human peroxidasin (PXDN) [3]): 2400 nM
- IC50 (Human peroxidasin (PXDN) [4]): 900 nM
- inhibition at 20 µM (Human peroxidasin (PXDN) [4]; 20 μM inhibitor, 50 mM bromide): 90%
- Irreversible Inhibition (Human peroxidasin (PXDN) [5]): no
- inhibition of PXDN remaining after washing (Human peroxidasin (PXDN) [5]; immobilized PXDN, 20 μM inhibitor without or with 10 μM hydrogen peroxide): no statistically significant difference
- Mechanism or Reaction Steady and Pre-Steady State Spectrophotometry (PXDN Compound I): forms Compound III
- IC50 [1, 8]: 155000 nM
- IC50 Cells [2]: ineffective
Compound: NNC(=O)CNc1ccccc1F [F-PAAH, 2-[(2-fluorophenyl)amino]-acetohydrazide]

- IC50 (Human peroxidasin (PXDN) [3]): 200 nM
- inhibition at 20 µM (Human peroxidasin (PXDN) [4]; 20 μM inhibitor, 50 mM bromide): 25 to 70%
- Mechanism or Reaction Steady and Pre-Steady State Spectrophotometry (PXDN Compound I): Good substrate for CI and CII
Compound: COc1ccc2c(C)nc(N=C(N)N)nc2c1 [Quinazoline, 2-(7-methoxy-4-methylquinazoline-2-yl)guanidine]

- inhibition at 24 µM (Human peroxidasin (PXDN) [6]): 97 to 99%
- IC50 (Human peroxidasin (PXDN) [6]; inhibitor 0–48 μM, read-out: IC50 Halogenation Dansylglycin): 1800 nM
- enhancement of Amplex oxidation (Human peroxidasin (PXDN) [3]; 20 μM compound, without bromide): about 50%
Compound: CSc1ccc2c(c1)N(CCC1CCCCN1C)c1ccccc1S2 (stereo not shown) [Thioridazine]
- inhibition of Amplex oxidation in the presence of bromide (Human peroxidasin (PXDN) [4]; 20 μM inhibitor, 50 mM bromide): neither activation of Amplex oxidation, nor much inhibition
- Mechanism or Reaction Steady and Pre-Steady State Spectrophotometry (PXDN Compound I): Good substrate for CI, not a substrate for CII
